pIC50: −log10 of the molar value.
Experiments:
[1] = test system: SARS CoV; test: in vitro; conditions: African green monkey
[2] = test system: Vero E6 cells
[3] = in vitro; conditions: African green monkey
[4] = test system: SARS CoV; test: microbe, parasite or virus in culture; conditions: Severe acute respiratory syndrome coronavirus, Vero C1008, read-out: Anti-SARS CoV IC50
[5] = test system: SARS CoV; conditions: Vero E6 cells

COc1cc2c3c(c4cc(OC)c(OC)cc4c2cc1OC)CN1CCCC1C3 (stereo not drawn) [Compound 1]
selectivity ratio [1]: 23.3 | cytotoxicity per se (in words) [2]: low cytotoxicity | CC50 [3]: 420 nM | pIC50 [4]: 7.74 | reduction of levels of CPEs caused by SARS CoV infection (in words) [5]: effectively reduced

COc1cc2c3c(c4cc(OC)c(OC)cc4c2cc1OC)CN1CCCCC1C3 (stereo not drawn) [Compound 11]
cytotoxicity per se (in words) [2]: low cytotoxicity | reduction of levels of CPEs caused by SARS CoV infection (in words) [5]: effectively reduced

COc1cc2c3c(c4cc(OC)c(OC)cc4c2cc1OC)C(O)C1CCCCN1C3 (stereo not drawn) [Compound 12]
selectivity ratio [1]: > 7.1 | CC50 [3]: > 100 nM | pIC50 [4]: 7.85

COc1cc2c3c(c4cc(OC)c(OC)cc4c2cc1OC)C[N+]1([O-])CCCCC1C3 (stereo not drawn) [Compound 18]
selectivity ratio [1]: > 56 | pIC50 [4]: > 7.00

COc1cc2c3cc(OC)c(OC)cc3c3c[n+]4c(cc3c2cc1OC)CCCC4.[Br-] [Compound 19]
cytotoxicity per se (in words) [2]: low cytotoxicity | reduction of levels of CPEs caused by SARS CoV infection (in words) [5]: effectively reduced

COc1ccc2c3c(c4cc(OC)c(OC)cc4c2c1)CN1CCCC1C3OC(C)=O (stereo not drawn) [Compound 32]
melting point: 196 to 198 °C

From patent publication US8440649B2 (priority 2009, dated 2013)
